Test results as given in patent publication US6362188B1, “Farnesyl protein transferase inhibitors” (Schering Corporation, priority 1998, dated 2002).

Legend:
[1] = tested on: Human tumor cells; test: Soft Agar Assay (anchorage-independent growth); format: cell-based; details: colony outgrowth in soft agar, stated as a range for the group
Description: Anchorage-independent growth is a characteristic of tumorigenic cell lines. Human tumor cells can be suspended in growth medium containing 0.3% agarose and an indicated concentration of a farnesyl transferase inhibitor. The solution can be overlayed onto growth medium solidified with 0.6% agarose containing the same concentration of farnesyl transferase inhibitor as the top layer. After the top layer is solidified, plates can be incubated for 10-16 days at 37° C. under 5% CO2 to allow colony outgrowth. After incubation, the colonies can be stained by overlaying the agar with a solution of MTT (3-[4,5-dimethyl-thiazol-2-yl]-2,5-diphenyltetrazolium bromide, Thiazolyl blue) (1 mg/mL in PBS). Colonies can be counted and the IC50's can be determined.

Row | melting point [°C] | IC50 [1] [nM] | SMILES
1 | 110 to 123 | – | Cc1cn(CC2CCCN(C(=O)C3CN(C4c5ccccc5CCc5cc(Cl)cnc54)CCN3C(=O)OC(C)(C)C)C2)cn1 (single isomer, unassigned) [Example 293]
2 | 137 to 139 | – | CC(C)(C)NC(=O)N1CCN(C2c3ccc(Cl)cc3CCc3cc(Br)cnc32)C[C@@H]1C(=O)N1CCC[C@@H]1Cn1ccnc1 (stereo partly drawn) [Example 21]
3 | 104 to 106 | – | CCc1cn(CC2CCCN(C(=O)C3CN(C4c5ccc(Cl)cc5CCc5cccnc54)CCN3C(=O)OC(C)(C)C)C2)cn1 (stereo not drawn) [35(C)]
4 | 105 to 113 | – | O=C([C@H]1CN(C2c3ccc(Cl)cc3CCc3cc(Cl)cnc32)CCN1C(=O)OC1CCCCC1)N1CCCC(Oc2cccnc2)C1 (stereo partly drawn) [Example 254A]
5 | 112 to 120 | – | CC(C)(C)NC(=O)N1CCN([C@@H]2c3ccc(Cl)cc3CCc3cc(Br)cnc32)C[C@@H]1C(=O)N1CCC[C@H](Cn2ccnc2)C1 [Example 18]
6 | 135 to 141 | – | CS(=O)(=O)N1CCN(C2c3ccc(Cl)cc3CCc3cc(Br)cnc32)C[C@@H]1C(=O)N1CCC[C@@H]1Cn1ccnc1 (stereo partly drawn) [Example 22]
7 | 91 to 94 | – | Cc1nccn1CC1CCCN(C(=O)C2CN(C3c4ccc(Cl)cc4CCc4cccnc43)CCN2C(=O)OC2CCCCC2)C1 (single isomer, unassigned) [Example 46]
8 | 98 to 112 | – | Cc1cn(C[C@@H]2CCCN(C(=O)[C@H]3CN(C4c5ccccc5CCc5ccccc54)CCN3C(=O)OC3CCCCC3)C2)cn1 [Example 414]
9 | 132 to 136 | – | CC(C)NC(=O)N1CCN([C@@H]2c3ccc(Cl)cc3CCc3cc(Br)cnc32)C[C@@H]1C(=O)N1CCC[C@@H](Cn2ccnc2)C1 [Example 17]
10 | 123 to 132 | – | Cc1cn(CC2CCCN(C(=O)C3CN(C4c5ccc(Cl)cc5CCc5cccnc54)CCN3C(=O)OC(C)C)C2)cn1 (stereo not drawn) [Example 36]
11 | 106 to 125 | – | Cc1ncn(CC2CCCN(C(=O)C3CN(C4c5ccc(Cl)cc5CCc5cccnc54)CCN3C(=O)OC3CCCCC3)C2)c1C (single isomer, unassigned) [47(H)]
12 | 131 to 135 | – | Cc1cn(CC2CCCN(C(=O)C3CN(C4c5ccc(Cl)cc5CCc5cc(Br)cnc54)CCN3C(=O)OC(C)(C)C)C2)cn1 (stereo not drawn) [Example 4.2]
13 | 99 to 113 | – | Cc1cn(CC2CCCN(C(=O)C3CN(C4c5ccc(Cl)cc5CCc5cccnc54)CCN3C(=O)OC3CCCCC3)C2)cn1 (stereo not drawn) [Example 42]
14 | 179 to 182 | – | CC(C)(C)OC(=O)N1CCN(C2c3ccc(Cl)cc3CCc3cc(Br)cnc32)CC1C(=O)N1CCS(=O)(=O)C(Cn2ccnc2)C1 (stereo not drawn) [Example 8]
15 | 100 to 106 | – | Cc1nccn1CC1CCCN(C(=O)C2CN(C3c4ccc(Cl)cc4CCc4cccnc43)CCN2C(=O)OC2CCCCC2)C1 (single isomer, unassigned) [Example 47]
16 | – | 0.05 to 30 | Cc1cncn1C[C@H]1CN(C(=O)[C@H]2CN([C@H]3c4ccc(Cl)cc4CCc4cc(Br)cnc43)CCN2C(=O)OC(C)(C)C)CCS1(=O)=O [Example 154]
17 | – | 0.05 to 30 | Cc1cn(CC[C@H]2CCCN2C(=O)[C@H]2CN(C3c4ccc(Cl)cc4CCc4cc(Br)cnc43)CCN2C(=O)OC2CCCCC2)cn1 (stereo partly drawn) [Example 215]
18 | – | 0.05 to 30 | Cc1cn(C[C@@H]2CN(C(=O)[C@H]3CN([C@@H]4c5ccc(Cl)cc5CCc5cc(Br)cnc54)CCN3C(=O)OC3CCCCC3)CCS2(=O)=O)cn1 [Example 209]
19 | – | 0.05 to 30 | Cc1cn(C[C@@H]2CCCN(C(=O)[C@H]3CN([C@H]4c5ccc(Cl)cc5CCc5cc(Br)cnc54)CCN3C(=O)OCC(C)(C)C)C2)cn1 [Example 174]
20 | – | 0.5 to 30 | Cc1nccn1CC1CCCN(C(=O)C2CN(C3c4ccc(Cl)cc4CCc4cccnc43)CCN2C(=O)NC(C)(C)C)C1 (stereo not drawn) [Example 49]

Row | melting point [°C] | IC50 [1] [nM] | SMILES
21 | – | 0.05 to 30 | Cc1cn(C[C@@H]2CCCN(C(=O)[C@H]3CN([C@@H]4c5ccc(Cl)cc5CCc5cc(Br)cnc54)CCN3C(=O)OC3CCCCC3)C2)cn1 [Example 171]
22 | – | 0.5 to 30 | CC(C)(C)OC(=O)N1CCN([C@H]2c3ccc(Cl)cc3CCc3cc(Br)cnc32)C[C@@H]1C(=O)N1CCCCC1CCn1ccnc1 (stereo partly drawn) [Example 138, 1,1-dimethylethyl 4-(3-bromo-8-chloro-6,11-dihydro-5H-benzo[5,6]cyclohepta[1,2-b]pyridin-11(S)-yl)-2(R)-[[2-[2-(1H-imidazol-1-yl)ethyl]-1-piperidinyl]carbonyl]-1-piperazinecarboxylate]
23 | – | 0.05 to 30 | Cc1cn(C[C@H]2CCCN(C(=O)[C@H]3CN([C@H]4c5ccc(Cl)cc5CCc5cc(Br)cnc54)CCN3C(=O)NC(C)(C)C)C2)cn1 [Example 192]
24 | – | 0.5 to 30 | CC(C)(C)OC(=O)N1CCN(C2c3ccc(Cl)cc3CCc3cc(Br)cnc32)C[C@@H]1C(=O)N1CCC[C@H](Cn2ccnc2)C1 (stereo partly drawn) [Example 1]
25 | – | 0.5 to 30 | Cc1cn(C[C@@H]2CCCN(C(=O)[C@H]3CN([C@H]4c5ccc(Cl)cc5CCc5cccnc54)CCN3C(=O)OC(C)(C)C)C2)cn1 [Example 32]
26 | – | 0.05 to 30 | Cc1cn(C[C@H]2CCCN(C(=O)[C@H]3CN([C@@H]4c5ccc(Cl)cc5CCc5cc(Br)cnc54)CCN3C(=O)OC(C)C)C2)cn1 [Example 183]
27 | – | 0.05 to 30 | Cc1cn(C[C@]2(O)CCCN(C(=O)[C@H]3CN([C@H]4c5ccc(Cl)cc5CCc5cccnc54)CCN3C(=O)OC3CCCCC3)C2)cn1 (stereo in doubt) [Example 419]
28 | – | 0.5 to 30 | CC(C)(C)OC(=O)N1CCN(C2c3ccc(Cl)cc3CCc3cc(Br)cnc32)CC1C(=O)N1CCCCC1CCCn1ccnc1 (single isomer, unassigned) [Example 145]
29 | – | 0.05 to 30 | Cc1cn(C[C@]2(C)CCCN(C(=O)[C@H]3CN([C@H]4c5ccc(Cl)cc5CCc5cccnc54)CCN3C(=O)OC3CCCCC3)C2)cn1 [Example 417]
30 | – | 0.05 to 30 | CC1(Cn2ccnc2)CCCN(C(=O)[C@H]2CN([C@H]3c4ccc(Cl)cc4CCc4cccnc43)CCN2C(=O)OC2CCCCC2)C1 (stereo partly drawn) [Example 415]
31 | – | 0.05 to 30 | Cc1cn(C[C@H]2CCCN(C(=O)[C@H]3CN([C@@H]4c5ccc(Cl)cc5CCc5cc(Br)cnc54)CCN3C(=O)NC(C)(C)C)C2)cn1 [Example 191]
32 | – | 0.05 to 30 | Cc1cn(C[C@@H]2CN(C(=O)[C@H]3CN([C@H]4c5ccc(Cl)cc5CCc5cc(Br)cnc54)CCN3C(=O)OC3CCCCC3)CCS2(=O)=O)cn1 [Example 210]
33 | – | 0.05 to 30 | Cc1cn(C[C@@H]2CCCN(C(=O)[C@H]3CN([C@H]4c5ccc(Cl)cc5CCc5cc(Br)cnc54)CCN3C(=O)OC(C)C)C2)cn1 [Example 170]
34 | – | 0.05 to 30 | Cc1cn(C[C@H]2CCCN(C(=O)[C@H]3CN([C@H]4c5ccc(Cl)cc5CCc5cc(Br)cnc54)CCN3C(=O)OC(C)C)C2)cn1 [Example 184]
35 | – | 0.5 to 30 | CCc1nccn1CC1CCCN(C(=O)C2CN(C3c4ccc(Cl)cc4CCc4cccnc43)CCN2C(=O)OC(C)(C)C)C1 (stereo not drawn) [Example 34]
36 | – | 0.5 to 30 | CC(C)(C)OC(=O)N1CCN(C2c3ccc(Cl)cc3CCc3cc(Br)cnc32)CC1C(=O)N1CC[S+]([O-])C(Cn2ccnc2)C1 (stereo not drawn) [Example 7]
37 | – | 0.05 to 30 | Cc1cn(C[C@H]2CCCN(C(=O)[C@H]3CN([C@@H]4c5ccc(Cl)cc5CCc5cc(Cl)cnc54)CCN3C(=O)OCC(C)(C)C)C2)cn1 [Example 245]
38 | – | 0.05 to 30 | Cc1cn(C[C@@H]2CCCN(C(=O)[C@H]3CN([C@@H]4c5ccc(Cl)cc5CCc5cc(Br)cnc54)CCN3C(=O)OC(C)C)C2)cn1 [Example 169]
39 | – | 0.05 to 30 | Cc1cn(C[C@H]2CCCN(C(=O)[C@H]3CN([C@@H]4c5ccccc5CCc5cc(Cl)cnc54)CCN3C(=O)NC3CCCCC3)C2)cn1 [Example 317]
